Measured values from patent US20230257771A1, “AAV DELIVERY SYSTEM FOR LUNG CANCER TREATMENT” (Christiana Care Health Services, Inc., priority 2020, published 2023).
“Also recorded” adds a separate entry of the source.

Legend:
[1] = system: 2-11 A549 cells (NRF2 knockout); assay: MTS cell proliferation assay after drug exposure, NRF2 knockout A549 (2-11); format: cell-based, human; conditions: 72 hours; for chemosensitivity (MTS): increasing dosages of single drug
Description: (§1) Cell viability was evaluated using the CellTiter 96 Aqueous Non-Radioactive Cell Proliferation Assay (Promega, Madison, WI). A549 cell lines were plated at 2×10^3 cells per well and allowed to culture for 24 hours. The cell media was then aspirated, the cells washed with PBS, then exposed to the MTS reagent for 3 hours. After 3 hours of MTS bio-reduction by proliferating cells, the formazan product’s absorbance was measured using a 450 nm filter on an Infinite 2000 PRO microplate reader (Tecan, Mannadorf, Switzerland). Cell viability after drug exposure was evaluated using the CellTiter 96 Aqueous Non-Radioactive Cell Proliferation Assay. A549 cell lines were plated at 2×10^3 cells per well and allowed to culture for 24 hours. The cells were then treated with cisplatin, carboplatin, or a combination of cisplatin and vinorelbine for three days. The cell media was then aspirated, the cells washed with PBS, then exposed to the MTS reagent for 3 hours. After 3 hours of MTS bio-reduction by proliferating cells, the formazan product’s absorbance was measured using a 450 nm filter on an Infinite 2000 PRO microplate reader.

[2] = system: NRF2 knockout A549 (2-11) tumors; assay: Xenograft mouse model, NRF2 knockout A549 (2-11) tumors; format: in vivo
Description: (§2) The animal trials presented herein were carried out at Washington Biotech Inc., Simpsonville Maryland, under animal use and care protocol (SOP 505, SOP 520, SOP 522, SOP 1610, SOP1650) approved by the animal care and use committee of Washington Biotechnology Inc. (AAALAC accredited Animal Welfare Assurance number A4192-01). The human xenograft model was established using methodology reported previously. Kellar et al., Biomed Res. Int. 2015, 1-17 (2015). Female athymic nude mice (Envigo, 5-6 weeks old) were used in this study. Approximately 5 × 10^6 cells (wild type A549 or homozygous knockout (clonal expansion 2-11)) suspended in PBS with 20% Matrigel were injected subcutaneously into right flank of each mouse. Tumor volume was measured three times a week with a digital caliper once palpable, and calculated using the formula, tumor size = ab^2/2, where ‘a’ is the larger and ‘b’ is the smaller of the two dimensions. When tumors grew up to a mean volume of around 100 mm^3, A549 tumor bearing mice or A549-2-11 tumor bearing mice were randomly divided into 7 groups (N=5 for each group) respectively and subject to dose/regimen-finding study. They were treated with tail vein injection of (1) Cisplatin (2 mg/kg), (2) Carboplatin (25 mg/kg), (3) Cisplatin (5 mg/kg) and Vinorelbine (5 mg/kg) or (4) saline on day 0, 3, 6 and 9 (day 0 is designated as the day of dose started) (Sanjana et al., 2014, Nature Methods 11(8); 783-784). Tumor volume and body weight was closely monitored over time. After 16 days, the animals were sacrificed, with tumor removed, weighed and processed for molecular analysis. Mice were euthanized. The data were expressed as mean ± SD. Student’s t-test and one-way or two-way ANOVA was used to assess the significance of difference. A P value < 0.05 was considered significant.
A549 xenografts were resected on day 16, snap frozen in liquid nitrogen and stored in -80° C. until usage. All immunofluorescence staining was performed as previously described. Wang et al., Investig. Opthalmology Vis. Sci. 58, 3896 (2017). Briefly, tumors were embedded in Optimum Cutting Temperature (Tissue Tek, Torrance, CA, USA) and 16-µm-thick sections were obtained with a Leica CM3050 cryostat (Leica Microsystems, Buffalo Grove, IL, USA), and mounted on slides. Slides were fixed and incubated with blocking buffer for 1 hour at room temperature. Sections were then incubated with primary antibody (refer to Table 3 for more details), then washed in PBS and incubated with Alexa Fluor 488 labeled secondary antibody (1:200 dilution; Invitrogen, Grand Island, NY, USA) for 1 hour at RT. Sections were washed in PBS, then mounted with SlowFade Gold antifade mountant with DAPI (Invitrogen, Carlsbad, CA, USA). […]

wild type A549 cells = assay: MTS cell proliferation assay after drug exposure, wild type A549; format: cell-based, human; conditions: 72 hours
Description: as §1

wild type A549 tumors = assay: Xenograft mouse model, wild type A549 tumors; format: in vivo
Description: as §2, with “They were treated with tail vein injection of (1) Cisplatin (2 mg/kg), (2) Carboplatin (25 mg/kg), (3) Cisplatin (5 mg/kg) and Vinorelbine (5 mg/kg) or (4) saline on day 0, 3, 6 and 9 (day 0 is designated as the day of dose started) (Sanjana et al., 2014, Nature Methods 11(8); 783-784).” left out, “After 16 days, the animals were sacrificed, with tumor removed, weighed and processed for molecular analysis. Mice were euthanized.” left out, “Student’s t-test and one-way or two-way ANOVA was used to assess the significance of difference. A P value < 0.05 was considered significant.” left out

A549 Clone 1-17 cells = assay: MTS assay, A549 Neh2 KO Clone 1-17 treated with cisplatin; format: cell-based, human; conditions: cisplatin 1, 2, 3, 5, 10 uM, compared to wildtype A549
Excerpt: (§3) The lung adenocarcinoma-derived cell line, A549, was used transfected with CRISPR/Cas9 designed to target exon 2 of NRF2 to create individual clones with random indel patterns. A total of three clones, 1-17, 2-16, and 2-23, were isolated and expanded. All three clones were collected for genomic DNA isolation and sanger sequencing to confirm the indels present. The DECODR program was used to deconvolute the sanger sequencing of each clone. The A549 cell line is polyploid and therefore, these clones contain 3 alleles of the NRF2 gene. Clone 1-17 contains -2, -2, -13 base pair deletions. Clone 2-16 contains a -1 base pair deletion across all alleles. Clone 2-23 contains two wildtype alleles and a -2 base pair deletion. A cell proliferation assay was used to assess the functionality of NRF2 after CRISPR targeting in combination with cisplatin treatment. The MTS assay was used to measure cellular proliferation of A549 wildtype, Clone 1-17, 2-16, and 2-23 cells. Cells were plated at the same concentration in each well and allowed to recover for 24 hours. […] Absorbance values for each clone and concentration were normalized by dividing the absorbance by the absorbance of each control well (0 µM). Normalized values for each clone at each concentration were then averaged across and standard error of the mean was calculated. […]

A549 Clone 2-16 cells = assay: MTS assay, A549 Neh2 KO Clone 2-16 treated with cisplatin; format: cell-based, human; conditions: cisplatin 1, 2, 3, 5, 10 uM, compared to wildtype A549
Excerpt: as §3

A549 Clone 2-23 cells = assay: MTS assay, A549 Neh2 KO Clone 2-23 treated with cisplatin; format: cell-based, human; conditions: cisplatin 1, 2, 3, 5, 10 uM, compared to wildtype A549
Excerpt: as §3

[3] = increasing cisplatin with Vinorelbine at 5 µM
[4] = increasing dosages of cisplatin
[5] = 5 mg/kg cisplatin and 5 mg/kg vinorelbine in combination
[6] = cisplatin 2 mg/kg, tumors harvested day 16

Compound	chemosensitivity (MTS) ([1]; listed as Carboplatin)	tumor growth over 16 days ([2]; 25 mg/kg carboplatin tail vein)	cisplatin dosage above which elevated sensitivity is shown (wild type A549 cells; [3]) [µM]	dose dependence of cell proliferation (MTS) (wild type A549 cells; [4])	resistance to drug (MTS proliferation) (wild type A549 cells; [4])	concentrations with loss of proliferation ([1]; cisplatin) [µM]	chemosensitivity (MTS), combination [1, 3]	chemosensitivity (MTS) [1]	tumor growth over 16 days (wild type A549 tumors; [5])	size of extracted tumors (wild type A549 tumors; [6])	tumor growth over 16 days [2, 5]	tumor growth over 16 days ([2]; cisplatin 2 mg/kg tail vein, day 0, 3, 6, 9)	size of extracted tumors [2, 6]	sensitivity to cisplatin (MTS) (A549 Clone 1-17 cells)	sensitivity to cisplatin (MTS) (A549 Clone 2-16 cells)	sensitivity to cisplatin (MTS) (A549 Clone 2-23 cells)
N.N.O=C([O-])C1(C(=O)[O-])CCC1.[Pt+2] [carboplatin]	the cell killing response reflected what was observed in the experiments using cisplatin	reduction in tumor proliferation	–	–	–	–	–	–	–	–	–	–	–	–	–	–
N.N.[Cl][Pt][Cl] [cisplatin]	–	–	> 5	slight increase in cell proliferation up to 3 µM of cisplatin before proliferation is adversely affected at final concentrations of 5 µM and 10 µM	resistant to high dosages	≥ 1	increased sensitivity; also recorded: a heightened sensitivity is also observed	heightened sensitivity	more sensitive to this combination of drugs	proliferate aggressively	cessation of tumor growth and maintenance of tumor size; also recorded: reduction in tumor proliferation	proliferation of the implanted cells is arrested; also recorded: reduction in tumor proliferation	smallest tumors	relatively the same trend of sensitivity	relatively the same trend of sensitivity	even higher resistance than the wildtype cells
